Results reported in patent US5814636A, “Compounds with platelet aggregation inhibitor activity” (Meiji Seika Kabushiki Kaisha, priority 1994, dated 1998).
Structures can show the parent of a compound that is named as a salt.

Tested on: human PRP (platelet rich plasma)
Experiment: Inhibition of platelet aggregation (human PRP, ADP-induced)
Assay type: cell-based
Settings: ADP 5 μM final as inducer, compound and PRP preincubated 2 minutes
Source text: The structures of compounds obtained in Examples are as follows. The numbers of the compounds correspond to those of the examples. [drawing 11] Pharmacological test: Inhibition of platelet aggregation
The effect of the compound according to the present invention on inhibiting the platelet aggregation was examined with human PRP (platelet rich plasma).
Nine volumes of a blood sample was taken out of the vein of a normal human with a syringe in which one volume of a 3.8% sodium citrate solution was charged. The blood sample was centrifuged at 170×g at room temperature for 10 minutes. The supernatant thus obtained was isolated as PRP. The residual blood sample that PRP had been taken out was centrifuged at 2,700×g for 15 minutes. The supernatant was then taken as platelet poor plasma (PPP).
Platelet aggregation test was conducted with an aggligometer (PAM-8C; manufactured by MEBANICKS Co., Ltd.). Compounds to be tested were dissolved in a 50% DMSO saline, a 50% methanol saline or physiological saline. The compound and PRP were preincubated for 2 minutes. The ADP (CHRONO-PAR REAGENTS 384 ADP, CHRONO-LOG Corp.) was used as an inducer in the form of a dilution with saline so that the final concentration is 5 μM.
Anti-platelet aggregation activity was obtained as an inhibition rate to platelet aggregation effect of ADP in the absence of a compound to be tested as follows: [formula]

Compound	IC50
O=C(O)COc1ccc(C(=O)CN2CCN(C3CCNCC3)CC2=O)cc1OCC(=O)O [Example 1, [[4-[[4-(piperidin-4-yl)-2-oxopiperazin-1-yl]acetyl]-o-phenylene]dioxy]diacetic acid trifluoroacetate]	55 nM
O=C(O)COC1CCN(C(=O)CN2CCN(C3CCNCC3)CC2=O)CC1 [Example 2, [[1-[4-(piperidin-4-yl)-2-oxopiperazin-1-yl]acetyl]piperidin-4-yl]oxyaceticacid trifluoroacetate]	80 nM
O=C(O)COc1ccc(C(=O)CN2CCN(C3CCNCC3)CC2)cc1OCC(=O)O [Example 3, [[4-[4-(piperidin-4-yl)piperazin-1-yl]acetyl]-o-phenylene]dioxy]diacetic acid trifluoroacetate]	150 nM
CCOC(=O)COc1ccc(C(=O)CN2CCN(C3CCNCC3)CC2=O)cc1OCC(=O)OCC [Example 4]	560 nM
O=C(O)COc1ccc(C(=O)CN2CCN(C3CCNCC3)CC2=O)cc1 [Example 5]	32 nM
O=C(O)COC1CCN(C(=O)CN2CCC(N3CCNCC3)CC2)CC1 [Example 6, [[1-[4-(piperazin-4-yl)piperidin-1-yl]acetyl]piperidin-4-yl]oxyacetic acid trifluoroacetate]	2300 nM
CCCCOC(=O)COc1ccc(C(=O)CN2C(=O)CN(C3CCNCC3)CC2=O)cc1 [Example 7, n-butyl 4-[[4-(piperidin-4-yl)-2,6-dioxopiperazin-1-yl]acetyl]phenoxyacetate hydro chloride]	240 nM
O=C(O)COc1ccc(C(=O)CN2C(=O)CN(C3CCNCC3)CC2=O)cc1 [Example 8, 4-[[4-(piperidin-4-yl)-2,6-dioxopiperazin-1-yl]acetyl]phenoxyacetic acid hydrochloride]	19 nM
CCCCOC(=O)COc1ccc(C(=O)CN2CCN(C3CCNCC3)C(=O)C2=O)cc1 [Example 9, n-butyl 4-[[4-(piperidin-4-yl)-2,3-dioxopiperazin-1-yl]acetyl]phenoxyacetate hydro chloride]	1200 nM
O=C(O)COc1ccc(C(=O)CN2CCN(C3CCNCC3)C(=O)C2=O)cc1 [Example 10, 4-[[4-(piperidin-4-yl)-2,3-dioxopiperazin-1-yl]acetyl]phenoxyacetic acid.hydrochloride]	470 nM
CCCCOC(=O)COc1ccc(C(=O)CN2CC(=O)N(C3CCNCC3)CC2=O)cc1 [Example 11]	1100 nM
O=C(O)COc1ccc(C(=O)CN2CC(=O)N(C3CCNCC3)CC2=O)cc1 [Example 12, 4-[[4-(piperidin-4-yl)-2,5-dioxopiperazin-1-yl]acetyl]phenoxyacetic acid hydrochloride]	1200 nM
CCCCOC(=O)COc1ccc(C(=O)CN2CCN(C3CCNCC3)CC2=O)cc1 [Example 13, n-butyl 4-[[4-(piperidin-4-yl)-2-oxopiperazin-1-yl]acetyl]phenoxyacetate dihydrochloride]	49 nM
CCOC(=O)COc1ccc(C(=O)CN2CCN(C3CCNCC3)CC2=O)cc1 [Example 14, ethyl 4-[[4-(piperidin-4-yl)-2-oxopiperazin-1-yl]acetyl]phenoxyacetate]	250 nM
CCOC(=O)COc1ccc(C(=O)CN2CCN(C3CCN(Cc4oc(=O)oc4C)CC3)CC2=O)cc1 [Example 15, ethyl 4-[[4-[1-(5-methyl-2-oxodioxol-4-yl)methylpiperidin-4-yl]-2-oxopiperazin-1-yl]acetyl]phenoxyacetate]	300 nM
O=C(O)CCc1ccc(C(=O)CN2CCN(C3CCNCC3)CC2=O)cc1 [Example 16, 3-[4-[[4-(piperidin-4-yl)-2-oxopiperazin-1-yl]acetyl]phenyl]propionic acid trifluoroacetate]	420 nM
